The values below come from US4428952A, “Substituted pyrrolo[2,1-b]quinazolines and pyrido[2,1-b]quinazolines useful for the treatment of or the prevention of gastrointestinal ulcers” (Farmitalia Carlo Erba S.p.A., priority 1981, dated 1984).

The test system of data set [1] is restraint ulcers. The experiment in a line: inhibition of restraint ulcers in rats (Bonfils et al.). The note with it: po; rat, p.o. one hour before immobilization; approximate values; lesions counted 4 hours after immobilization; read-out: Anti-ulcerogenic activity ED50 p.o. The format is in vivo, rat (Sprague-Dawley male). On the procedure: The anti-ulcerogenic activity of the compounds of the invention is shown, e.g., by the fact that they are active in the test of the inhibition of restraint ulcers in rats, according to the method of Bonfils et al., (Therapie, 1960, 5, 1096; Jap. J. Pharmac. 1945, 43, 5).
The tested compound was administered per os (p.o.) one hour before the immobilization. Six Sprague-Dawley male rats (100-120 g) fasted 24 hours were used for the experiment: a square flexible small-mesh wire netting was used for the immobilization and 4 hours after the immobilization the rats were sacrificed, their stomachs were removed and the lesions counted under a dissecting microscope.

In data set [2] the test system is syndrome induced by oxotremorine. The experiment in a line: antagonism against syndrome induced by oxotremorine in mice (Leszkovszky and Tardos); anticholinergic activity. The format is in vivo, mouse. Conditions: 100 mg/kg, oral administration. The text has this: Considering that many anti-ulcer agents display, as does atropine, a remarkable but undesired anti-cholinergic activity, the compounds of the invention have been assessed for their antagonism against syndrome induced by oxotremorine in mice, according to the method described by Leszkovszky G. P. and Tardos L. (Europ. J.Pharmac. 1971, 15, 310).

Data set [3] can be described thus: acute toxicity (LD50), single administration of increasing doses. The note with it: in vivo, po, mouse, per os, measured on the seventh day of treatment, read-out: approximate acute toxicity (LD50). The source says: In view of their high therapeutic index the compounds of the invention can be safely used in medicine. For example, the approximate acute toxicity (LD50) of the compounds 3-benzylidene-1,2,3,9-tetrahydro-9-oxo-pyrrolo[2,1-b]quinazoline-7-carboxylic acid; 3-benzylidene-1,2,3,9-tetrahydro-9-oxo-pyrrolo[2,1-b]quinazoline-6-carboxylic acid; 6-benzylidene-6,7,8,9-tetrahydro-11-oxo-11H-pyrido[2,1-b]quinazoline-2-carboxylic acid; 6-benzylidene-6,7,8,9-tetrahydro-11-oxo-11H-pyrido[2,1-b]quinazoline-3-carboxylic acid in mouse, determined with single administration of increasing doses and measured on the seventh day of treatment is per os higher than 800 mg/kg.

In data set [4] the test system is gastric secretion. The data set can be described thus: inhibition of gastric secretion in rats (H. Shay et al.). The class given is in vivo. Conditions: Rattus norvegicus, intraduodenal administration, approximate value, read-out: antisecretory activity ED50.

Some results are limits rather than exact numbers.

In general, ED50 refers to the midpoint of the dose-response relation. In general, LD50 refers to the dose at which mortality reaches 50%.

`O=C(O)c1ccc2c(=O)n3c(nc2c1)C(=Cc1ccccc1)CC3` [3-benzylidene-1,2,3,9-tetrahydro-9-oxo-pyrrolo[2,1-b]quinazoline-6-carboxylic acid]: in data set [1], the 50% effective dose (ED50) is about 10 mg/kg. Also, the “antagonism against syndrome induced by oxotremorine” value (shortened to “antagonism against syndrome induced”) in data set [2] was “inactive”. Moreover, the LD50 at 168 h in data set [3] was over 800 mg/kg.

With `O=C(O)c1ccc2nc3n(c(=O)c2c1)CCCC3=Cc1ccccc1` [6-benzylidene-6,7,8,9-tetrahydro-11-oxo-11H-pyrido[2,1-b]quinazoline-2-carboxylic acid], the ED50 in data set [1] was about 9 mg/kg. The “antagonism against syndrome induced” value in data set [2] was “inactive”. Besides, the LD50 at 168 h in data set [3] is over 800 mg/kg.

Turning to `O=C(O)c1ccc2nc3n(c(=O)c2c1)CCC3=Cc1ccccc1` [3-benzylidene-1,2,3,9-tetrahydro-9-oxo-pyrrolo[2,1-b]quinazoline-7-carboxylic acid], the ED50 in data set [1] is about 8 mg/kg. For the same compound, the “antagonism against syndrome induced” value in data set [2] is “inactive”. Besides, the LD50 at 168 h in data set [3] was over 800 mg/kg.

For the compound `O=C(O)c1ccc2c(=O)n3c(nc2c1)C(=Cc1ccccc1)CCC3` [6-benzylidene-6,7,8,9-tetrahydro-11-oxo-11H-pyrido/2,1-b/quinazoline-3-carboxylic acid], the ED50 was about 8 mg/kg in data set [1] and about 15 mg/kg in data set [4]. The “antagonism against syndrome induced” value in data set [2] was “inactive”. Besides, in data set [3], the LD50 at 168 h was over 800 mg/kg.
